Here are results for one compound from patent US5480885A, “Ergoline derivatives of 1-propinylamine, a process for the manufacture thereof and the use thereof for medicaments” (priority 1991, dated 1996).

“Also recorded” adds a separate entry of the source. Where two headings read alike, the source gives them in different places.

Data set [1] has as its system pentobarbital-anesthetized normotensive rats. The data set can be described thus: blood pressure and heart rate in pentobarbital-anesthetized normotensive rats. Type of data set: in vivo, rat. As to conditions: 450 μg/kg i.v.
Data set [2] concerns the target T1, isolated rabbit thoracic aorta (serotonin) (Oryctolagus cuniculus, UniProt G1SYA7).
T1 construct: isolated rabbit thoracic aorta; from tissue; host or cells: isolated rabbit thoracic aorta

Another data set deals with isolated rat uterus. Nature of the data set: uterotonic activity (isolated rat uterus). Particulars: in words.
For data set [3], the system named is isolated rabbit thoracic aorta. The data set can be described thus: constriction of the isolated rabbit thoracic aorta. Particulars: for EC50: Oryctolagus cuniculus.
Data set [4] can be described thus: acute toxicity in mice (Miller and Tainter). As to conditions: mouse, in vivo, intravenous. The text has this: Exptl. Biol. Med. 57, 261 (1944).
The test system of the next data set is pupil. The data set can be described thus: dilatation of the pupil in mice (Pulewka). The class given is in vivo. Particulars: in words.
A further data set deals with pithed rats. Nature of the data set: vasoconstriction / diastolic pressure in pithed rats (Gillespie). Type of data set: in vivo, rat. Particulars: 450 μg/kg i.v.; in words.
The target of a further data set is T2, 5-HT2 receptors (Mus musculus, UniProt P35363).
T2 construct: The head twitch model in mice; from tissue; host or cells: living mice (central nervous system)
T2 sequence (P35363 whole entry): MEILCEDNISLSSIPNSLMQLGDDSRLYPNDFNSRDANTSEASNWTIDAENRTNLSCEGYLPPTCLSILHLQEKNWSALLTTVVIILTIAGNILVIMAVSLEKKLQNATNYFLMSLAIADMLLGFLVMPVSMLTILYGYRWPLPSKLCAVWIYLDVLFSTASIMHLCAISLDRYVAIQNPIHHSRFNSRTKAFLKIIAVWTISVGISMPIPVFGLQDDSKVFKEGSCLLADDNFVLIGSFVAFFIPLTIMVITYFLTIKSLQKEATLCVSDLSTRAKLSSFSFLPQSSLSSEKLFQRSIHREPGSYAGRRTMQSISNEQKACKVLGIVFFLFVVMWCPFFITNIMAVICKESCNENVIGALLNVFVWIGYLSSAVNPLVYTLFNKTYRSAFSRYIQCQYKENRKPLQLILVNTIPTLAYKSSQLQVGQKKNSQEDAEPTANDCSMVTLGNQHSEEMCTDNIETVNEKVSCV
The data set can be described thus: head twitch response caused by the compound in mice. Type of data set: in vivo. An excerpt: The head twitch model in mice represents an experimental model for determining the hallucinogenic action of a compound (the method was described by Handley and Singh, Br.J.Pharmacol., 86, 297-303, 1985). It is believed that the response is conveyed via the 5-HT2 receptors.

T1 sequence (G1SYA7 entry or part of it): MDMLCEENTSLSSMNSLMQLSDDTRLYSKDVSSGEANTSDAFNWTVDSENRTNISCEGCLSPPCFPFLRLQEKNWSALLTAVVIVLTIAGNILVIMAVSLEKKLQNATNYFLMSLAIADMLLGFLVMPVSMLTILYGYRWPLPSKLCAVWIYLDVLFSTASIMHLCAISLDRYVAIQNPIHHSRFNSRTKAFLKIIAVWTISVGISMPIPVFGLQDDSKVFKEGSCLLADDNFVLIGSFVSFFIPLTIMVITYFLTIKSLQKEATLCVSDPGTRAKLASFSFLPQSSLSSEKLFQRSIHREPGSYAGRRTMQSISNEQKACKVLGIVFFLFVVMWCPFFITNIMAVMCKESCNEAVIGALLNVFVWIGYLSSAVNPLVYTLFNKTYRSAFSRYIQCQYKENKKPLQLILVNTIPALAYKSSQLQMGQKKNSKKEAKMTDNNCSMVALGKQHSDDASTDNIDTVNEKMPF

Regarding `C#CCN(C)C(=O)[C@@H]1C=C2c3cccc4[nH]cc(c34)C[C@H]2N(C)C1` [Example 4, 9,10-Didehydro-N-methyl-N-(2'-propinyl)-6-methylergoline-8β-carboxamide], the respiratory troubles result in data set [1] is “respiratory troubles could be perceived”. Besides, the “effect on carotid artery pressure” value in data set [1] (in words) is on record as “statistically non-significant changes in carotid artery pressure”. The “reduction in heart rate” value in data set [1] (vs initial level) is listed as 20%. The “mode of inhibition of serotonin constriction” value in data set [2] (in words) is given as “the antagonism was of competitive nature”. Further, the serotonin-antagonistic activity entry in data set [2] (inactivated α1-adrenergic receptors, 0.01 to 0.3 μM) is reported as “showed a serotonin-antagonistic activity”. Also, the “effect on maximum activity of serotonin” value in data set [2] (inactivated α1-adrenergic receptors, higher doses) is “noticeable decrease of the maximum activity of serotonin”. Moreover, the Kb in data set [2] (vs serotonin, inactivated α1-adrenergic receptors, smaller doses (0.1 μM), read-out: pA2 (converted)) is 4.27 nM. For the same compound, the uterotonic activity result in the data set on isolated rat uterus is reported as “lesser than the one of methylergometrine maleate”. In addition, in data set [3] (0.39 μM (EC50)), the “receptors responsible for vasoconstriction” value is “predominantly the result of the activation of α1 -adrenergic receptors and to a lesser extent of the activation of 5-HT2 receptors”. Moreover, the EC50 in data set [3] (constriction of the isolated rabbit thoracic aorta, read-out: pD2 (converted)) is 389 nM; in data set [3] (vasoconstriction, read-out: EC50) it was 390 nM. In addition, in data set [3] (in words), the “constriction of the isolated rabbit thoracic aorta” value was “caused a constriction of the isolated rabbit thoracic aorta”. Moreover, in data set [3] (in words, vs serotonin), the “intrinsic activity, aorta constriction” value was “comparable to that of serotonin”. Moreover, the LD50 – broadly, the dose at which mortality reaches 50% – in data set [4] came to 55 mg/kg. In addition, the “dilatation of the pupil” value in the data set with pupil (dose-dependent, dose not given) was “dose-dependent dilatation of the pupil”. Also, the “behavioural effects in mice” value with pupil was “an increased activity, tremor and piloerection”. The peripheral vasoconstriction entry in the data set on pithed rats is “transient, yet extraordinarily strong peripheric vasoconstriction”. The “head twitch response caused by compound” value at 5-HT2 receptors (0.125 to 4 mg/kg i.p., in words) was “caused a head twitch response in mice; also recorded: at higher doses the activity decreased (autoinhibitory effect)”. In addition, the “dose of maximum head twitch activity” value on 5-HT2 receptors (i.p.) came out at 1 mg/kg.
